Assay results as given in patent US20240294531A1, “COVALENT HETEROCYCLES AND USES THEREOF” (Kumquat Biosciences Inc., priority 2022, published 2024).

Tests used:
BTK C481S protein = BTK C481S protein (Homo sapiens (Human), UniProt Q06187, C481S); experiment: BTK C481S HTRF displacement assay; assay type: binding; conditions: 1-hour incubation
In short: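 Tracer displacement read by HTRF after 1 hour at room temperature: GST-BTK C481S 2-659, 50 nM tracer 239 (Kd 54 nM), anti-GST antibody, compound in six four-fold doses from 5 μM. Percent inhibition versus DMSO fitted (bottom 0, top 100) for IC50, converted to KI via Cheng-Prusoff.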

BTK wildtype protein = BTK wildtype protein (Homo sapiens (Human), UniProt Q06187); experiment: BTK wildtype HTRF displacement assay; assay type: binding; conditions: 1-hour incubation; read-out: BTK (wt) IC50
In short: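 Tracer-displacement HTRF format: compound and tracer 239 compete at the BTK active site, detected via anti-GST-Tb on GST-tagged full-length enzyme. One-hour room-temperature incubation; compounds dosed at six four-fold steps down from 5 μM. Percent inhibition versus DMSO gives IC50 by constrained four-parameter logistic fit.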

Chain of BTK wildtype protein (Q06187 2-659): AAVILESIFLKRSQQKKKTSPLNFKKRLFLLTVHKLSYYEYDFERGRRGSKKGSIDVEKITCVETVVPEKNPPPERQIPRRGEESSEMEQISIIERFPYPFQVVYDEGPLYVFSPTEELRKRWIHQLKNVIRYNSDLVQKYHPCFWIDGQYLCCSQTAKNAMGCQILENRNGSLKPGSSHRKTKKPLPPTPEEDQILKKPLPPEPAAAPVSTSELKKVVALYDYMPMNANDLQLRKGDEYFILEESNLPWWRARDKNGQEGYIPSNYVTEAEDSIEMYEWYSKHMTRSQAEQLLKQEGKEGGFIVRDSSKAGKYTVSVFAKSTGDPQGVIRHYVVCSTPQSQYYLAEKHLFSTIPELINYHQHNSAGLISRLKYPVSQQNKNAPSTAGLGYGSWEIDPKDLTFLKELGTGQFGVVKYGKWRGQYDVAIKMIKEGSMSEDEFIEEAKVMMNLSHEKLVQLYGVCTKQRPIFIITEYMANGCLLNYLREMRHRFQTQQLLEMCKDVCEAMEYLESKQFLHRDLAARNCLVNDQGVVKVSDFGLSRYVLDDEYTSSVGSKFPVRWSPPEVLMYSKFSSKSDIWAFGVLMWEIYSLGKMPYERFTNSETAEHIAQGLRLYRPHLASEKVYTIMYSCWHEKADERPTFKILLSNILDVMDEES
Chain of BTK C481S protein (Q06187 2-659 C481S): as the sequence (Q06187 2-659) above, with C480S counted along it

Row | IC50 (BTK C481S protein) [µM] | IC50 (BTK wildtype protein) [µM] | SMILES
1 | > 1 | ≤ 1 | COc1ccc(C)cc1C(=O)NCc1ccc(-c2nn(CC3CCCCN3C(=O)n3cncn3)c3ncnc(N)c23)cc1 (centres unmarked) [Compound 217, N-(4-(1-((1-(1H-1,2,4-triazole-1-carbonyl)piperidin-2-yl)methyl)-4-amino-1H-pyrazolo[3,4-d]pyrimidin-3-yl)benzyl)-2-methoxy-5-methylbenzamide]
2 | ≤ 1 | ≤ 1 | NC(=O)c1c(-c2ccc(Oc3ccccc3)cc2)nn2c1NCC[C@H]2[C@H]1CCCCN1C(=O)n1cncn1 [Compound 266, (S)-7-((R)-1-(1H-1,2,4-triazole-1-carbonyl)piperidin-2-yl)-2-(4-phenoxyphenyl)-4,5,6,7-tetrahydropyrazolo[1,5-a] pyrimidine-3-carboxamide]
3 | ≤ 1 | ≤ 1 | COc1ccc(F)cc1C(=O)NCc1ccc(-c2nn(C[C@H]3CCCC[C@@H]3CN(C)C(=O)n3cncn3)c3ncnc(N)c23)cc1 [Compound 193, N-(((1S,2S)-2-((4-amino-3-(4-((5-fluoro-2-methoxybenzamido)methyl)phenyl)-1H-pyrazolo [3,4-d]pyrimidin-1-yl)methyl)cyclohexyl)methyl)-N-methyl-1H-1,2,4-triazole-1-carboxamide]
4 | ≤ 1 | > 1 | NC(=O)c1c(-c2ccc(Oc3ccccc3)cc2)nn2c1NCCC2[C@@H]1CCCN1C(=O)n1cncn1 (stereo partly drawn) [Compound 280, 7-((S)-1-(1H-1,2,4-triazole-1-carbonyl)pyrrolidin-2-yl)-2-(4-phenoxyphenyl)-4,5,6,7-tetrahydropyrazolo[1,5-a] pyrimidine-3-carboxamide]
5 | > 1 | > 1 | COc1nn(C)cc1Nc1nc(N2CCC3(CCN3C(=O)n3cncn3)C2)nc2c1ncn2C (centres unmarked) [Compound 107, (6-(6-((3-methoxy-1-methyl-1H-pyrazol-4-yl)amino)-9-methyl-9H-purin-2-yl)-1,6-diazaspiro[3.4]octan-1-yl)(1H-1,2,4-triazol-1-yl)methanone]
6 | ≤ 1 | ≤ 1 | COc1ccc(F)cc1C(=O)NCc1ccc(-c2nn(C3CCCN(C(=O)n4cncn4)C3)c(N)c2C(N)=O)cc1 (centres unmarked) [Compound 124, 1-(1-(1H-1,2,4-triazole-1-carbonyl)piperidin-3-yl)-5-amino-3-(4-((5-fluoro-2-methoxybenzamido)methyl)phenyl)-1H-pyrazole-4-carboxamide]
7 | ≤ 1 | ≤ 1 | COc1ccc(F)cc1C(=O)NCc1ccc(-c2nn(C[C@H]3C[C@@H](C)CCN3C(=O)n3cnnc3)c(N)c2C(N)=O)cc1 [Compound 212, 5-amino-3-(4-((5-fluoro-2-methoxybenzamido)methyl)phenyl)-1-(((2R,4S)-4-methyl-1-(4H-1,2,4-triazole-4-carbonyl)piperidin-2-yl)methyl)-1H-pyrazole-4-carboxamide]
8 | > 1 | > 1 | COc1ccc(F)cc1C(=O)NCc1ccc(-c2nn(CC3CN(C)CCN3C(=O)n3cncn3)c3ncnc(N)c23)cc1 (centres unmarked) [Compound 178, N-(4-(4-amino-1-((4-methyl-1-(1H-1,2,4-triazole-1-carbonyl)piperazin-2-yl)methyl)-1H-pyrazolo[3,4-d]pyrimidin-3-yl)benzyl)-5-fluoro-2-methoxybenzamide]
9 | ≤ 1 | ≤ 1 | Cc1[nH]c2c(C(N)=O)cc(F)c(N3CCC(N(C)C(=O)n4cncn4)C3)c2c1C (centres unmarked) [Compound 128, 5-fluoro-2,3-dimethyl-4-(3-(N-methyl-1H-1,2,4-triazole-1-carboxamido)pyrrolidin-1-yl)-1H-indole-7-carboxamide]
10 | ≤ 1 | ≤ 1 | CN(C(=O)n1cncn1)C1CC(C2CCNc3c(C(N)=O)c(-c4ccc(Oc5ccccc5)cc4)nn32)C1 (centres unmarked) [Compound 115, 7-(3-(N-methyl-1H-1,2,4-triazole-1-carboxamido)cyclobutyl)-2-(4-phenoxyphenyl)-4,5,6,7-tetrahydropyrazolo[1,5-a]pyrimidine-3-carboxamide]
11 | ≤ 1 | ≤ 1 | COc1ccc(F)cc1C(=O)NCc1ccc(-c2nn(C(C)C3CCN(C(=O)n4cncn4)C3)c3ncnc(N)c23)cc1 (centres unmarked) [Compound 172, N-(4-(1-(1-(1-(1H-1,2,4-triazole-1-carbonyl)pyrrolidin-3-yl)ethyl)-4-amino-1H-pyrazolo[3,4-d]pyrimidin-3-yl)benzyl)-5-fluoro-2-methoxybenzamide]
12 | ≤ 1 | ≤ 1 | COc1ccc(F)cc1C(=O)NCc1ccc(-c2nn(C[C@@H]3CCCN3C(=O)n3cncn3)c3ncnc(N)c23)cc1 [Compound 251, (S)-N-(4-(1-((1-(1H-1,2,4-triazole-1-carbonyl)pyrrolidin-2-yl)methyl)-4-amino-1H-pyrazolo[3,4-d]pyrimidin-3-yl)benzyl)-5-fluoro-2-methoxybenzamide]
13 | > 1 | > 1 | NC(=O)c1nn2c(c1-c1ccc(Oc3ccccc3)cc1)NCCC2C1CCCCN1C(=O)n1cncn1 (centres unmarked) [Compound 203, 7-(1-(1H-1,2,4-triazole-1-carbonyl)piperidin-2-yl)-3-(4-phenoxy-phenyl)-4,5,6,7-tetrahydro-pyrazolo[1,5-a]pyrimidine-2-carboxamide]
14 | > 1 | ≤ 1 | COc1ccc(F)cc1C(=O)NCc1ccc(-c2nn(C3(CCN(C)C(=O)n4cncn4)CC3)c3ncnc(N)c23)cc1 [Compound 225, N-(2-(1-(4-amino-3-(4-((5-fluoro-2-methoxybenzamido)methyl)phenyl)-1H-pyrazolo[3,4-d]pyrimidin-1-yl)cyclopropyl)ethyl)-N-methyl-1H-1,2,4-triazole-1-carboxamide]
15 | ≤ 1 | ≤ 1 | COc1ccc(F)cc1C(=O)NCc1ccc(-c2nn(-c3cccc(CN(C)C(=O)n4cncn4)c3)c3ncnc(N)c23)cc1 [Compound 191, N-(3-(4-amino-3-(4-((5-fluoro-2-methoxybenzamido)methyl)phenyl)-1H-pyrazolo[3,4-d]pyrimidin-1-yl)benzyl)-N-methyl-1H-1,2,4-triazole-1-carboxamide]
16 | ≤ 1 | ≤ 1 | Cc1[nH]c2c(C(N)=O)cc(F)c(N3CCCC(N(C)C(=O)n4cncn4)C3)c2c1C (centres unmarked) [Compound 262, 5-fluoro-2,3-dimethyl-4-(3-(N-methyl-1H-1,2,4-triazole-1-carboxamido)piperidin-1-yl)-1H-indole-7-carboxamide]
17 | ≤ 1 | ≤ 1 | CN(C(=O)n1cncn1)C1CCC(C2CCNc3c(C(N)=O)c(-c4ccc(Oc5ccccc5)cc4)nn32)C1 (centres unmarked) [Compound 183, 7-(3-(N-methyl-1H-1,2,4-triazole-1-carboxamido)cyclopentyl)-2-(4-phenoxyphenyl)-4,5,6,7-tetrahydropyrazolo[1,5-a] pyrimidine-3-carboxamide]
18 | ≤ 1 | ≤ 1 | COc1ccc(F)cc1C(=O)NCc1ccc(-c2nn(C3CCC(CN(C)C(=O)n4cncn4)C3)c3ncnc(N)c23)cc1 (centres unmarked) [Compound 111, N-((3-(4-amino-3-(4-((5-fluoro-2-methoxybenzamido)methyl)phenyl)-1H-pyrazolo[3,4-d]pyrimidin-1-yl)cyclopentyl)methyl)-N-methyl-1H-1,2,4-triazole-1-carboxamide]
19 | > 1 | > 1 | COc1ccc(F)cc1C(=O)NCc1ccc(-c2nn(C(Cc3ccncc3)CN(C)C(=O)n3cncn3)c3ncnc(N)c23)cc1 (centres unmarked) [Compound 281]
